Assay results from ChEMBL document CHEMBL1944623, “Synthesis, characterization and antiamoebic activity of some hydrazone and azole derivatives bearing pyridyl moiety as a promising heterocyclic scaffold” (Eur J Med Chem, 2012).

How the values were obtained:
[1] = test system: Entamoeba histolytica; test: Antiameobic activity against Entamoeba histolytica HM-1:IMSS after 72 hrs using trypan blue staining method; type: functional, organism-based
[2] = test system: MCF7; test: Cytotoxicity against human MCF7 cells assessed as cell viability after 48 hrs by MTT assay; type: cell-based; settings: MCF7, 48 h

Compound | IC50 [1] | Activity [1] | IC50 [2]
O=C(N/N=C/c1ccccc1)c1ccncc1 [N'-BENZYLIDENE ISONICOTINOHYDRAZIDE] | 3.84 µM |  | 
CN(C)c1ccc(/C=N/NC(=O)c2ccncc2)cc1 [N'-(4-DIMETHYLAMINOBENZYLIDENE)ISONICOTINOHYDRAZIDE] | 5.55 µM |  | 
COc1ccc(/C=N/NC(=O)c2ccncc2)cc1 | 0.39 µM | Dose-dependent effect | > 250 µM
Sc1nnc(-c2ccncc2)n1-c1ccccc1 | 0.16 µM | Dose-dependent effect | > 250 µM
Cc1ncc([N+](=O)[O-])n1CCO [METRONIDAZOLE] |  |  | > 250 µM
Cc1ccc(/C=N/NC(=O)c2ccncc2)cc1 [N'-(4-METHYLBENZYLIDENE)ISONICOTINOHYDRAZIDE] | 0.13 µM | Dose-dependent effect | > 250 µM
O=C(N/N=C/c1ccccc1O)c1ccncc1 [SALINAZID] | 4.14 µM |  | 
O=C(N/N=C/c1cccc(Cl)c1)c1ccncc1 [N'-(3-CHLOROBENZYLIDENE)ISONICOTINOHYDRAZIDE] | 12.1 µM |  | 
c1ccc(Nc2nnc(-c3ccncc3)s2)cc1 | 4.43 µM |  | 
S=c1[nH]nc(-c2ccncc2)o1 | 0.558 µM | Dose-dependent effect | > 250 µM
CC(C)c1ccc(/C=N/NC(=O)c2ccncc2)cc1 | 3.74 µM |  | 
O=C(N/N=C/c1ccc([N+](=O)[O-])cc1)c1ccncc1 [N'-(4-NITROBENZYLIDENE)ISONICOTINOHYDRAZIDE] | 0.37 µM | Dose-dependent effect | > 250 µM
